According to ChEMBL document CHEMBL1221295 (Bioorg Med Chem, 2010):

Key:
[1] = target: T1, Melatonin receptor type 1A (Homo sapiens, UniProt P48039); test: Displacement of [125I]iodomelatonin from human cloned MT1 receptor expressed in […] NIH3T3 cells after 90 mins; type: cell-based
[2] = target: T1, Melatonin receptor type 1A; test: Intrinsic activity at human cloned MT1 receptor expressed in […] NIH3T3 cells assessed as increase of [35S]GTPgammaS binding relative to melatonin; type: functional, cell-based
[3] = target: T2, Melatonin receptor type 1B (Homo sapiens, UniProt P49286); test: Displacement of [125I]iodomelatonin from human cloned MT2 receptor expressed in […] NIH3T3 cells after 90 mins; type: cell-based
T2 sequence (P49286 whole entry): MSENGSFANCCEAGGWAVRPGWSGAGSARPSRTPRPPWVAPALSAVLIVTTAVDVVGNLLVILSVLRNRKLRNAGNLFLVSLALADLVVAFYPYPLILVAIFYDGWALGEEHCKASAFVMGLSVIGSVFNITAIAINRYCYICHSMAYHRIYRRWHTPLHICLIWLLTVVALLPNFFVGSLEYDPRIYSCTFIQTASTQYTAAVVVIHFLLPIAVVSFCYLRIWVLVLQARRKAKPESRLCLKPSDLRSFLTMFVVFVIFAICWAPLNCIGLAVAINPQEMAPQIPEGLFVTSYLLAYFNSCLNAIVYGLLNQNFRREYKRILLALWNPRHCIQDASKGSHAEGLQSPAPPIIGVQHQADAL

[4] = target: T3, Melatonin receptor type 1B (Homo sapiens) (UniProt P49286); test: Intrinsic activity at human cloned MT2 receptor expressed in […] NIH3T3 cells assessed as increase of [35S]GTPgammaS binding relative to melatonin; type: functional, cell-based
T3 sequence (whole entry): T2 sequence (P49286 whole entry)

T1 sequence (P48039 whole entry): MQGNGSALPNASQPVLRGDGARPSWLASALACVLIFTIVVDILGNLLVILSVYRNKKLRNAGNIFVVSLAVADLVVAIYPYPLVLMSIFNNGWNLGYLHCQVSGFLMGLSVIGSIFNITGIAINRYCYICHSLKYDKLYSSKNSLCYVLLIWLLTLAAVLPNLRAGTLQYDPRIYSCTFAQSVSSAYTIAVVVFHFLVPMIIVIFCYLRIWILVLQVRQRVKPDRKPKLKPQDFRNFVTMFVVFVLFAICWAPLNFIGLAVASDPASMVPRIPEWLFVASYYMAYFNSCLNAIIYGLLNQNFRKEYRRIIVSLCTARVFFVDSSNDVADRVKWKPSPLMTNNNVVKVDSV

SMILES	Ki [1] [nM]	Ratio [2]	Ki [3] [nM]	Ratio [4]
COc1cccc(SC(C)CNC(=O)C2CC2)c1 (stereo unspecified)	8.51	0.77	9.77	0.63
CCCC(=O)NC[C@@H](C)Sc1cccc(OC)c1	70.8	0.59	26.3	0.64
COc1cccc(O[C@@H](C)CNC(=O)C2CC2)c1	0.724	1.01	4.37	1.26
CC(=O)NCC(C)Oc1ccccc1 (stereo unspecified)	1380	0.48	1150	0.69
CC(=O)NCCSc1ccccc1	3800	0.22	339	0.5
COc1ccccc1OC(C)CNC(C)=O (stereo unspecified)	10500	0.19	5130	0.45
CC(=O)NCCOc1ccccc1	11500	0.31	5500	0.5
COc1cccc(OC(C)CNC(=O)C2CC2)c1 (stereo unspecified)	0.933	0.91	12.9	1.02
CCCC(=O)NC[C@H](C)Oc1cccc(OC)c1	3.09	1.01	2.75	1.07
CCCC(=O)NC[C@H](C)Sc1cccc(OC)c1	3.89	0.99	6.03	0.96
COc1cccc(S[C@@H](C)CNC(=O)C2CC2)c1	5.37	0.8	6.76	0.8
COc1ccccc1SCCNC(C)=O	3630	0.27	501	0.56
COc1ccc(SCCNC(C)=O)cc1	2820	0.48	2400	0.56
CCCC(=O)NC[C@@H](C)Oc1cccc(OC)c1	81.3	1.06	67.6	0.86
COc1ccc(OCCNC(C)=O)cc1	61700	0.26	45700	0.44
CC(=O)N[C@H](C)COc1ccccc1	63100	0.17	53700	0.11
CCCC(=O)NCC(C)Oc1cccc(OC)c1 (stereo unspecified)	4.17	1.04	3.72	1.12
COc1ccc(OC(C)CNC(C)=O)cc1 (stereo unspecified)	42700	0.15	12600	0.13
COc1ccccc1OCCNC(C)=O	37200	0.23	6610	0.22
COc1cccc(OCCNC(C)=O)c1	40.7	0.81	67.6	0.8
CC(=O)NC(C)COc1ccccc1 (stereo unspecified)	12000	0.04	3800	0.15
CCCC(=O)NCC(C)Sc1cccc(OC)c1 (stereo unspecified)	9.12	1.02	5.01	0.99
COc1cccc(O[C@H](C)CNC(=O)C2CC2)c1	7.76	0.9	20.9	0.77
COc1cccc(S[C@H](C)CNC(=O)C2CC2)c1	120	0.49	49	0.59
CC(=O)N[C@@H](C)COc1ccccc1	20900	0.05	4570	0.26

Results, then the molecule that gave them:

Ki [1] [nM]	Ratio [2]	Ki [3] [nM]	Ratio [4]	SMILES
1.7	1.01	4.68	1.09	COc1cccc(O[C@@H](C)CNC(C)=O)c1
11500	0.29	12300	0.32	COc1cccc(SC[C@@H](C)NC(C)=O)c1
2750		661		COc1cccc(S[C@H](C)CNC(C)=O)c1
110		263		COc1cccc(SC(C)CNC(C)=O)c1 (stereo unspecified)
55	0.85	39.8	0.81	COc1cccc(SCCNC(C)=O)c1
3.63	1.01	9.55	1.01	COc1cccc(OC(C)CNC(C)=O)c1 (stereo unspecified)
3720	-0.07	4370	0.25	CC(=O)N[C@@H](C)CSc1ccccc1
5.75		7.08		COc1cccc(S[C@@H](C)CNC(C)=O)c1
49	0.79	110	0.93	COc1cccc(O[C@H](C)CNC(C)=O)c1
12000		1320		COc1cccc(SCC(C)NC(C)=O)c1 (stereo unspecified)
31600	0	6760	0.2	CC(=O)NC(C)CSc1ccccc1 (stereo unspecified)
74100	-0.05	64600	-0.04	CC(=O)N[C@H](C)CSc1ccccc1
347	0.75	302	0.8	COc1cccc(OC[C@H](C)NC(C)=O)c1
36300	0.35	4900	0.43	COc1cccc(OC[C@@H](C)NC(C)=O)c1
355	0.63	347	0.71	COc1cccc(OCC(C)NC(C)=O)c1 (stereo unspecified)
479	0.3	263	0.5	COc1cccc(SC[C@H](C)NC(C)=O)c1
